Data from patent US9186340B2, “Ischemia/reperfusion protection compositions and methods of using” (priority 2007, dated 2015).

Assays:
[1] = tested on: rats subjected to 60% blood loss; experiment: Rat hemorrhagic shock, 60% blood loss (Example 3); type: in vivo
Protocol: Rats infused with ketone bodies were subjected to 60% blood loss for at least 1 hour, followed by return of the shed blood. Endpoint measures of neuroprotection were quantitative analysis of neuronal survival and apoptosis in cortex, hippocampus and cerebellum as well as neurologic function exam scores. The objective was to determine the effectiveness of the D-form of beta-hydroxybutyrate (D-BHB) in conjunction with melatonin in protecting the brain from ischemia and providing protection from reperfusion injury after blood return.
The goal of the following experiments was to maintain 60% blood loss for at least three hours using a minimal amount of fluid in order to maintain viability. Sixty-percent blood loss was calculated by using the equation: Total blood volume=Animal body weight×0.06. A bolus volume of 1 ml ischemia/reperfusion protection composition per kilogram of animal body weight was given to animals after approximately 40% blood loss. Some animals only received a single 1 ml/kg bolus, while other animals received a slow infusion (100 μl/hr) to imitate an intravenous drip of solution after the bolus was given. […]
Once rats were fully anesthesized and stabilized for a 20 min period, blood loss was begun. […] Temperature was monitored with a rectal probe. […] Animal death was recorded when blood pressure, respiration, and precordial movement ceased (see FIG. 9 for a timeline). […]

[2] = tested on: heart of hibernating ground squirrels; conditions: in vivo, ip
Protocol: The overall strategy of these experiments was to measure incorporation of isotope from infused ^13C-BHB into the brain pool of ^13C-BHB and into the tricarboxylic acid (TCA) cycle-derived metabolites such as glutamate, glutamine and aspartate. The same experiments were performed in parallel using [1-^13C2]-glucose (FIG. 1). A quantitative determination of BHB blood-brain transport and a rate of consumption (relative to glucose consumption) was determined in non-hibernating ground squirrels at euthermic temperatures and in hibernating ground squirrels at 4-6° C. Ground squirrels were anesthetized (isoflurane) prior to placement in the magnet of the magnetic resonance (MR) instrument and were injected with ^13C-BHB or [1-^13C2]-glucose.

transport into the heart during hibernation [2] | Structure (SMILES) | survival following hemorrhagic shock versus 4 M NaCl ([1]; 60% blood loss, same osmolarity NaCl comparator) | survival versus NaCl, bolus followed by infusion ([1]; bolus followed by 100 μl/hr infusion, p-value<0.016)
– | C[C@@H](O)CC(=O)O [D-BHB, D-beta-hydroxybutyrate] | survived longer | lived significantly longer
efficiently transported into the heart | [13CH3][C@@H](O)[13CH2]C(=O)O [^13C-D-BHB, [2,4-^13C] D-beta-hydroxybutyrate] | – | –
